Assay results as given in US6593335B1, “Potassium channel openers” (Abbott Laboratories, priority 1997, dated 2003).

Tests used:
potassium channels = potassium channels (Sus scrofa, UniProt F1SR11); experiment: Functional potassium channel opening activity in isolated Landrace pig bladder strips (field-stimulated twitch); conditions: for Landrace Pig Bladder Index: ED50 for P1075 divided by ED50 for the test agonist, averaged over tissues; for Landrace Pig Bladder pD2: negative logarithm of ED50; for Emax: pig, maximal efficacy relative to P1075, field stimulation 0.05Hz, 0.5 milli-seconds at 20 volts
Description: The entire bladder was removed and ed into Krebs Ringer bicarbonate solution (composition, mM: NaCl,; dextrose, 1; KCl, 4.7; […] Propranolol (0.004 ed in all of the assays to block […]. The trigonal and dome […]. Strips 3-5 mm wide and 20 mm long were prepared from the cut in a circular fashion. The mucosal layer was removed. One end ationary glass rod and the other to a Grass FT03 transducer at a basal am. Two parallel platinum electrodes were included in the stationary ide field stimulation of 0.05Hz, 0.5 milli-seconds at 20 volts. […] Tissues were allowed to equilibrate for at least 60 minutes and primed with 80 mM KCl. A control concentration response curve (cumulative) was generated for each tissue using the potassium channel opener […] as the control agonist. […] After a 60 minute rinsing period, a concentration response curve (cumulative) was generated for the test agonist in the same fashion as that used for the control agonist […]. The maximal efficacy of each compound (expressed as % relative to […]) is reported. […] J. Physiol. 235, E97 (1980)), and agonist potencies were expressed as pD2 (the negative logarithm). Agonist potencies were also expressed as an index relative to […]. The index was calculated by dividing the ED50 for […] by the ED50 for the test agonist in a given tissue. Each tissue was used for only one test agonist, and the indices obtained from each tissue were averaged to provide an average index of potency.

melting point	Landrace Pig Bladder Index (potassium channels)	Landrace Pig Bladder pD2 (potassium channels)	Emax (potassium channels)	SMILES
> 250 °C				O=C1CCC2=C1C(c1ccc(Cl)c(Cl)c1)C1=C(CCS1(=O)=O)N2 (single isomer, unassigned) [Example 145]
> 250 °C				O=C1CCC2=C1C(c1ccc(Cl)c([N+](=O)[O-])c1)C1=C(CCS1(=O)=O)N2 (single isomer, unassigned) [Example 160]
> 250 °C	0.36	6.6	100%	O=C1CCCC2=C1C(c1ccc(F)c(Cl)c1)C1=C(CCS1(=O)=O)N2 (single isomer, unassigned; (+)) [Example 109, (+)-9-(3-chloro-4-fluorophenyl)-2,3,5,6,7,9-hexahydrothieno[3,2-b]quinolin-8(4H)-one, 1,1-dioxide]
> 250 °C				O=C1CCCC2=C1C(c1ccc(F)c(C(F)(F)F)c1)C1=C(CCS1(=O)=O)N2 (single isomer, unassigned; (+)) [Example 138, (+)-9-[4-fluoro-3-(trifluoromethyl)phenyl]-2,3,5,6,7,9-hexahydrothieno[3,2-b]quinolin-8(4H)-one, 1,1-dioxide]
> 250 °C				N#Cc1cccc(C2C3=C(CCC3=O)NC3=C2S(=O)(=O)CC3)c1 (single isomer, unassigned; (-)) [Example 162]
156 to 176 °C	0.018	5.6	100%	N#Cc1cccc(C2C3=C(CCC3=O)NC3=C2S(=O)(=O)CC3)c1 (stereo not drawn) [Example 52, 8-(3-cyanophenyl)-2,3,4,5,6,8-hexahydro-7H-cyclopenta[b]thieno [2.3-e]pyridin-7-one, 1,1-dioxide]
> 260 °C				O=C1CCC2=C1C(c1cccc([N+](=O)[O-])c1)C1=C(CCCS1(=O)=O)N2 (stereo not drawn) [Example 55, 3,4,5,6,7,9-hexahydro-9-(3-nitrophenyl)cyclopenta[b]thiopyrano [2,3-e]pyridin-8(2H)-one, 1,1-dioxide]
> 260 °C	0.88	7.1	97%	O=C1CCC2=C1C(c1ccc(F)c(Br)c1)C1=C(CCS1(=O)=O)N2 (stereo not drawn) [Example 56, 8-(3-bromo-4-fluorophenyl)-2,3,4,5,6,8-hexahydro-7H-cyclopenta[b]thieno[2,3-e]pyridin-7-one, 1,1-dioxide]
254 °C	0.42	6.8	100%	O=C1CCC2=C1C(c1ccc(F)c(C(F)(F)F)c1)C1=C(CCS1(=O)=O)N2 (stereo not drawn) [Example 57, 8-(4-fluoro-3-trifluoromethylphenyl)-2,3,4,5,6,8-hexahydro-7H-cyclopenta[b]thieno [2.3-e]pyridin-7-one, 1,1-dioxide]
> 260 °C				O=[N+]([O-])c1cccc(C2C3=C(CCCS3(=O)=O)NC3=C2S(=O)(=O)CCC3)c1 [Example 59, 3,4,6,7,8,10-hexahydro-10-(3-nitrophenyl)-2H,5H-dithiopyrano [3.2-b:2′,3′-e]pyridine, 1,1,9,9-tetraoxide]
> 260 °C	0.60	6.9	100%	O=C1CCC2=C1C(c1ccc(Cl)c(Cl)c1)C1=C(CCS1(=O)=O)N2 (stereo not drawn) [Example 60, 8-(3 4-dichlorophenyl)-2,3 4,5,6,8-hexahydro-7H-cyclopenta[b]thieno [2,3-e]pyridin-7-one, 1,1-dioxide]
248 °C				N#Cc1cccc(C2C3=C(CCS3(=O)=O)NC3=C2S(=O)(=O)CC3)c1 [Example 62, 8-(3-cyanophenyl)-2,3,4,5,6,8-hexahydrodithieno [3.2-b:2′,3′-e]pyridine. 1,1,7,7-tetraoxide]
246 °C				O=C1CCC2=C1C(c1cccc(Br)c1)C1=C(CCS1(=O)=O)N2 (stereo not drawn) [Example 64, 8-(3-bromophenyl)-2,3,4,5,6,8-hexahydro-7H-cyclopenta[b]thieno [2,3-e]pyridin-7-one, 1,1-dioxide]
> 260 °C	0.048	6.0	100%	O=S1(=O)CCC2=C1C(c1ccc(F)c(C(F)(F)F)c1)C1=C(CCS1(=O)=O)N2 [Example 65]
254 to 255 °C				O=C1CCC2=C1C(c1cc(Br)cs1)C1=C(CCS1(=O)=O)N2 (stereo not drawn) [Example 67]
246 to 247 °C				O=C1CCC2=C1C(c1ccc(Br)s1)C1=C(CCS1(=O)=O)N2 (stereo not drawn) [Example 68]
218 to 220 °C				CC1=C(S(C)(=O)=O)C(c2ccc(Cl)c(Cl)c2)C2=C(CCC2=O)N1 (stereo not drawn) [Example 75, 4-(3,4-dichlorophenyl)-1,4,6,7-tetrahydro-2-methyl-3-(methylsulfonyl)-5H-cyclopentafblpyridin-5-one]
232 °C				CC1=C(S(C)(=O)=O)C(c2ccc(Cl)c([N+](=O)[O-])c2)C2=C(CCC2=O)N1 (stereo not drawn) [Example 76, 4-(4-chloro-3-nitrophenyl)-1,4,6,7-tetrahydro-2-methyl-3-,(methylsulfonyl)-5H-cyclopenta[b]pyridin-5-one]

melting point	Landrace Pig Bladder Index (potassium channels)	Landrace Pig Bladder pD2 (potassium channels)	Emax (potassium channels)	SMILES
253 to 256 °C				O=C1CCC2=C1C(c1ccc(Br)cc1)C1=C(CCS1(=O)=O)N2 (stereo not drawn) [Example 78]
> 260 °C				O=C1CCC2=C1C(c1ccc(F)c(F)c1)C1=C(CCS1(=O)=O)N2 (stereo not drawn) [Example 79]
> 260 °C				O=C1CCC2=C1C(c1ccc(Cl)c(F)c1)C1=C(CCS1(=O)=O)N2 (stereo not drawn) [Example 80]
275 to 280 °C (dec.)				N#Cc1cc(C2C3=C(CCS3(=O)=O)NC3=C2S(=O)(=O)CC3)ccc1F [Example 82]
> 250 °C				O=C1CCCC2=C1C(c1ccc(F)c(I)c1)C1=C(CCS1(=O)=O)N2 (stereo not drawn) [Example 89, 9-(4-fluoro-3-iodophenyl)-2,3,5,6,7,9-hexahydrothieno [3.2-b]quinolin-8(4H)-one, 1,1-dioxide]
> 250 °C				O=C1CCC2=C1C(c1ccc(F)c(I)c1)C1=C(CCS1(=O)=O)N2 (stereo not drawn) [Example 90]
> 260 °C				Cc1cc(C2C3=C(CCCC3=O)NC3=C2S(=O)(=O)CC3)ccc1F (stereo not drawn) [Example 111, 9-(4-fluoro-3-methylphenyl)-2,3,5,6,7,9-hexahydrothieno[3,2-b]quinolin-8(4H)-one, 1,1-dioxide]
> 250 °C				O=C1CCCC2=C1C(c1cccnc1)C1=C(CCS1(=O)=O)N2 (stereo not drawn) [Example 117, 9-(3-pyridinyl)-2,3,5,6,7,9-hexahydrothieno[3,2-b]quinolin-8(4H)-one, 1,1-dioxide]
> 250 °C				O=C1CCCC2=C1C(c1ccncc1)C1=C(CCS1(=O)=O)N2 (stereo not drawn) [Example 118, 9-(4-pyridinyl)-2,3.5,6,7,9-hexahydrothieno[3,2-b]quinolin-8(4H)-one, 1,1-dioxide]
> 250 °C				O=C1CCCC2=C1C(c1cc(Cl)ccc1O)C1=C(CCS1(=O)=O)N2 (stereo not drawn) [Example 120, 9-(5-chloro-2-hydroxyphenyl)-2,3,5,6,7,,9-hexahydrothieno[3 .2-b]guinolin-8(4H)-one, 1. I -dioxide]
262 to 265 °C (dec.)				CC1(C)CCC2=C(C1=O)C(c1ccc(Cl)c(Cl)c1)C1=C(CCS1(=O)=O)N2 (stereo not drawn) [Example 127, 9-(3,.4-dichlorophenyl)-7,7-dimethyl-2,3.5,.6,7,9-hexahydrothieno[3,*2-b Iquinolin-8(4H)-one, 1,1-dioxide]
> 250 °C				O=C1CCCC2=C1C(c1ccc(Br)s1)C1=C(CCS1(=O)=O)N2 (stereo not drawn) [Example 128, 9-(5-bromo-2-thienyl)-2,3,5,6,7,9-hexahydrothieno[3,2-b]quinolin-8(4H)-one, 1,1-dioxide]
> 250 °C				O=C1CCCC2=C1C(c1cc(Br)cs1)C1=C(CCS1(=O)=O)N2 (stereo not drawn) [Example 129, 9-(4-bromo-2-thienyl)-2,3,5,6,7,9-hexahydrothieno[3,2-b]quinolin-8(4H)-one, 1,1-dioxide]
> 250 °C				O=C1CCCC2=C1C(c1ccc(Br)c(Br)c1)C1=C(CCS1(=O)=O)N2 (stereo not drawn) [Example 137, 9-(3 4-dibromophenyl)-2,3,5,6,79-hexahydrothieno[3,2-b]quinolin-8(4H)-one 1 1-dioxide]
> 250 °C				O=C1CCCC2=C1C(c1ccc(Cl)c(C(F)(F)F)c1)C1=C(CCS1(=O)=O)N2 (stereo not drawn) [Example 151, 9-[4-chloro-3-(trifluoromethyl)phenyl]-2,3,5,6,7,9-hexahydrothieno [32-b]quinolin-8(4H)-one, 1,1-dioxide]
180 to 183 °C				O=S1(=O)CCC2=C1C(c1ccc(F)c(Cl)c1)C=C(C(F)(F)F)N2 (stereo not drawn) [Example 163, 7-(3-chloro-4-fluorophenyl)-5-(trifluoromethyl)-2,3,4,7-tetrahydrothieno[3,2-b]pyridine, 1,1-dioxide]
> 250 °C				N#Cc1ccc(C2C3=C(CCCC3=O)NC3=C2S(=O)(=O)CC3)s1 (stereo not drawn) [Example 175, 9-(5-cyano-2-thienyl)-2,3,5,6,7,9-hexahydrothieno[3,2-b]guinolin-8(4H)-one, 1,1-dioxide]
> 270 °C				CC1(C)CCC(=O)C2=C1NC1=C(C2c2ccc(F)c(Br)c2)S(=O)(=O)CC1 (stereo not drawn) [Example 212]
